Entries after “also recorded” stand apart in the source; their conditions may differ.
Columns and labels:
[1] = system: cytochrome P450s in C. elegans and diverse PPN species; test: HPLC of cyproside-3 parent and metabolites in whole worms with pan-P450 inhibitor 1-ABT; format: in vivo
Description: (§1) FIGS. A-A′″ show HPLC chromatograms with cyproside-3 (abbreviated cypros-3) unmodified parent molecule (P) and metabolite (M1-M5) peaks indicated. MP1 is a cyproside-3 metabolite uniquely produced in P. penetrans. Y-axis indicates absorbance wavelength in nm. FIGS. B-B′″ show quantification of unmodified cyproside-3 parent (P) and metabolite peaks from A-A′″. Error bars indicate SEM, p-values calculated using unpaired t-test. FIGS. C-C′″ show the proportion mobile worms relative to DMSO solvent controls after 72-hour exposure to 20 μM cyproside-3 (C. elegans) or 60 μM cyproside-3 (all other species). P-values calculated using unpaired t-test.
(§2) Using the pan-P450 inhibitor (1-ABT), cyproside-3's metabolism was inhibited in vivo (FIGS. 11A and 11B).

[2] = system: C. elegans and diverse PPN species; test: Worm mobility after cyproside-3 exposure with 1-ABT; format: in vivo; conditions: 72-hour exposure to 20 μM cyproside-3 (C. elegans) or 60 μM cyproside-3 (all other species)
Description: as §1, §2

M. incognita CYP4731A3 = test: CYPce assay: yeast-based M. incognita CYP expression screen and dose-response; format: cell-based, Meloidogyne incognita; conditions: 19 M. incognita CYP-expressing yeast strains vs empty vector, 50 μM in screen
Description: (§3) Each data point corresponds to an individual yeast strain expressing a unique M. incognita CYP enzyme. The data point above the dotted line has a p-value <0.01, and corresponds to the strain expressing M. incognita CYP4731A3. […] Unmodified sel-A and metabolites M2 and M3 are indicated. […] AUC is the area under the curve for M2 and M3 combined, calculated at 260 nm. Error bars are SEM. The p-value was obtained from an unpaired one-tailed Student's t-test comparing the means of empty vector control and CYP4731A3 expressing yeast. M1 was not detectable.
(§4) Each data point corresponds to an individual yeast strain expressing a unique M. incognita P450 enzyme. The data point above the dotted line has a p-value <0.01 and corresponds to the strain expressing M. incognita CYP4731A3. […] Viability relative to untreated controls is indicated by the grey-coded scale. […] Peaks corresponding to the unmodified cyproside-3 and the three cyproside-3 metabolites visible using the HPLC-DAD system (M1, M2 and M3) are indicated. […] AUC is the area under the curve, error bars indicate SEM. […]
With that single strain, a library of small molecules are screened for those that can be bioconverted by the heterologously-expressed enzyme into a product that kills the cells expressing the enzyme. As set out herein, the growth of cells was measured, for example, by a variety of means, including optical density. […]

Meloidogyne incognita = test: Soil-based tomato root infection assay; format: in vivo; conditions: 6 weeks of infection in soil drenched with chemical
Description: Cyprosides 3-2, 3-3, and 3-4 are structural analogs of cyproside-3. […] All error bars represent SEM, p-values calculated using an unpaired t test vs. solvent controls. […] Cyprosides 3-7, 3-12, 3-25, and 3-26 are structural analogs of cyproside-3. The other data points represent negative (water, DMSO) and positive (fluopyram, tioxazafen) controls. All error bars represent SEM.
There were no significant adverse effects on plant growth by the cyproside-3s as evident by the resulting root mass (FIG. 12C).

Mi-CYP4731A3 = test: HPLC analysis of lysates of yeast expressing CYP4731A3; format: in vitro ADME, Meloidogyne incognita; conditions: lysates of yeast treated with 100 μM compound
Description: as §3
as §4, with “SEM. The p-values were obtained from unpaired two-tailed Student's t-tests comparing the means of the empty vector control and CYP4731A3 expressing yeast.” for “SEM.”

[3] = system: human cells (HEK293 and HepG2), fungi (Saccharomyces cerevisiae and Candida albicans) and plant beneficial rhizobacteria (Pseudomonas simiae WCS417 and …); test: Dose-response analysis on off-target systems (FIG. 10); format: cell-based; conditions: HEK293, HepG2, S. cerevisiae, C. albicans, P. simiae WCS417, P. defensor WCS374; relative to solvent control
Description: (§5) Dose-response analysis of cyproside-3 and tioxazafen on diverse nematode species and off-target systems including human cells (HEK293 and HepG2), fungi (Saccharomyces cerevisiae and Candida albicans) and plant beneficial rhizobacteria (Pseudomonas simiae WCS417 and Pseudomonas defensor WCS374). The activity of the compound relative to the solvent control in each assay is indicated by the gray coded scale.

[4] = system: diverse nematode species (non-parasitic and plant parasitic species); test: Dose-response analysis on diverse nematode species (FIG. 10); format: in vivo; conditions: dose-response relative to solvent control
Description: as §5

CYP-35D1 = target: T1, CYP-35D1 (Caenorhabditis elegans, UniProt O45364); test: HPLC / LCMS analysis of cyproside-3 metabolites, CYP-35D1; format: in vitro ADME, C. elegans; conditions: lysates of yeast after treatment with 100 μM cyproside-3
T1 construct: expressed in transfected cells; host or cells: Saccharomyces cerevisiae (yeast), expression vector vs empty vector
T1 sequence (O45364 1-499): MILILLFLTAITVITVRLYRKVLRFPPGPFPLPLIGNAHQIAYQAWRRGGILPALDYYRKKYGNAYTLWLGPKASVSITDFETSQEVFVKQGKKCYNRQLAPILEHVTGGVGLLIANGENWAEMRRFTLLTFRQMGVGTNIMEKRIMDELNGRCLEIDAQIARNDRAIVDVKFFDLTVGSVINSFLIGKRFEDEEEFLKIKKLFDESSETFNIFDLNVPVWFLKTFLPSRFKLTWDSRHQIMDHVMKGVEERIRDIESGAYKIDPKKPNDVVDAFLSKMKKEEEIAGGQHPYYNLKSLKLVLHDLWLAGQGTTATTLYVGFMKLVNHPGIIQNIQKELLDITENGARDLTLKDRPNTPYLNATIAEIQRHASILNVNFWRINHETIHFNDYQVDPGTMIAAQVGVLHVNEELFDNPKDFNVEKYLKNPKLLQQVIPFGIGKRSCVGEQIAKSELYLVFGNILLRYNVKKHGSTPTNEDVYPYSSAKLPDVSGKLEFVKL
Description: (§6) In this condition cyproside-3 is not metabolized into a lethal product and yeast are viable. […] CYP-35D1 is capable of metabolizing cyproside-3 into an active metabolite which leads to reduced viability in the yeast. […] Viability relative to untreated controls is indicated by the gray coded scale. […] AUC is the area under the curve, error bars indicate SEM. The p-values were obtained from unpaired two-tailed Student's t-tests comparing the means of the empty vector control and CYP-35D1 expressing yeast. […] Peaks corresponding to the unmodified cyproside-3 and the three cyproside-3 metabolites visible using our HPLC-DAD system (M1, M2 and M3) are indicated.
Cytochrome P450 enzymes (CYPs) catalyze the S-oxidation of cyproside-3 which produces an electrophilic sulfoxide metabolite. This sulfoxide metabolite reacts with glutathione (GSH) and is further processed to γ-Glutamyl-Cysteine (γ-Glu-Cys), Cysteinylglycine (Cys-Gly) and cysteine (Cys) conjugates.

C. elegans P450 CYP-35D1 = target: T2, C. elegans P450 CYP-35D1 (Caenorhabditis elegans, UniProt O45364); test: CYPce assay: viability of yeast expressing CYP-35D1 vs empty vector; format: cell-based; conditions: yeast expressing CYP-35D1 vs empty vector yeast; dose-response
T2 construct: expressed in transfected cells; host or cells: Saccharomyces cerevisiae (yeast), expression vector vs empty vector
T2 sequence (O45364 1-499): T1 sequence (O45364 1-499)
Description: as §6
CYPce (pronounced sip-sea) is an acronym for the heterologous expression of CYPs in S. cerevisiae for the purpose of identifying P450s that can bioactivate small molecules into lethal products that may or may not be reactive. […]
(§7) With that single strain, a library of small molecules are screened for those that can be bioconverted by the heterologously-expressed enzyme into a product that kills the cells expressing the enzyme. As set out herein, the growth of cells was measured, for example, by a variety of means, including optical density.

CYP-35C1 = format: in vitro ADME; conditions: C. elegans
Description: (§8) Viability relative to untreated controls is indicated by the gray coded scale. […] The p-values were obtained from unpaired two-tailed Student's t-tests comparing the means of the empty vector control and CYP-35C1 expressing yeast.
FIGS. 6A-C show mass spectrometry (MS) data for metabolite M1-M3 HPLC fractions and untreated control fractions, as well as MS/MS fragmentation data for selected masses. Structures of γ-glutamylcysteine (γ-Glu-Cys) (A), glutathione (B), and cysteine (C) conjugates of a selectivin-A (sel-A) electrophilic sulfoxide metabolite are shown, along with fragmentations that produce masses found in the MS/MS plots. […] S-oxidation produces an electrophilic sulfoxide metabolite that reacts with glutathione (GSH) either spontaneously or via glutathione-S-transferase (GST), and is likely further processed to 7-Glu-Cys and cysteine conjugates via phytochelatin synthase (PCS) and 7-glutamyl transferase (GGT), respectively. Cytochrome p450 enzymes (CYPs) likely mediate S-oxidation.

C. elegans P450 CYP-35C1 = test: CYPce assay: viability of yeast expressing CYP-35C1 vs empty vector; format: cell-based; conditions: yeast expressing CYP-35C1 vs empty vector yeast; dose-response
Description: as §8
CYPce (pronounced sip-sea) is an acronym for the heterologous expression of CYPs in S. cerevisiae for the purpose of identifying P450s that can bioactivate small molecules into lethal products that may or may not be reactive. The CYPce assay relies on culturing a single strain of yeast (S. cerevisiae) (or any convenient cell type in other embodiments) that expresses a single P450 enzyme (or any other small molecule modifying enzyme in other embodiments) from a single targeted organism (FIG. 2).
as §7

`Nn1nnc2ccccc21` [Cyproside 1-ABT, reference compound] was tested, and the “effect of 1-ABT on cyproside-3's metabolism in vivo” value [1] was “inhibited” and the “effect of 1-ABT on cyproside-3's effects on the worms (mobility)” value [2] was “inhibited cyproside-3's effects on the worms”.
With `CCSc1nnc(-c2ccc(Cl)cc2)o1` [cyproside-3, 2-(4-chlorophenyl)-5-(ethylthio)-1,3,4-oxadiazole] the “yeast killing dependent on Mi-CYP4731A3” value (M. incognita CYP4731A3) was “can kill yeast in a Mi-CYP4731A3-dependent manner”, the “control of root infection by M. incognita (eggs per milligram of tomato root tissue)” value (Meloidogyne incognita) was “demonstrated activity” and the “metabolism by Mi-CYP4731A3 in yeast (HPLC)” value (Mi-CYP4731A3) was “metabolized by Mi-CYP4731A3 in yeast”. The “activity against non-targeted cells and organisms” value [3] was “little-to-no activity against non-targeted cells and organisms”, the “phylogenetic activity profile: activity on nematode species” value [4] was “high selectivity for all nematode species tested; also recorded: broad-spectrum activity in plant-parasitic nematodes” and the “metabolism by CYP-35D1 (HPLC)” value (CYP-35D1) was “metabolized by CYP-35D1 into a reactive product”. For the same compound, the “yeast killing dependent on CYP-35D1” value (C. elegans P450 CYP-35D1) was “killed yeast in a manner dependent on C. elegans P450 CYP-35D1”.
`Clc1ccc(-c2cn3ccsc3n2)cc1` [selectivin-A, 6-(4-chlorophenyl)imidazo[2,1-b]thiazole] was tested, and the “nature of product of metabolism by CYP-35C1 (LCMS and NMR)” value (CYP-35C1) was “metabolized by CYP-35C1 into a reactive lethal product”, the “metabolism by CYP-35C1 in yeast (HPLC)” value (CYP-35C1; 100 μM) was “metabolized by CYP-35C1 in yeast” and the “yeast killing dependent on Mi-CYP4731A3” value (M. incognita CYP4731A3) was “kills yeast in a Mi-CYP4731A3-dependent manner”. The “yeast killing dependent on CYP-35C1” value (C. elegans P450 CYP-35C1) was “kills yeast in a manner dependent on the C. elegans P450 CYP-35C1” and the “metabolism by Mi-CYP4731A3 in yeast (HPLC)” value (Mi-CYP4731A3) was “metabolized by Mi-CYP4731A3 in yeast”.
